Structures can show the parent of a compound that is named as a salt.
Target: T1, human RIPK1 (1-375) (Homo sapiens, UniProt Q13546)
T1 construct: human RIPK1 (1-375) gene; GST; made in house; host or cells: Sf-9 insect cells
T1 sequence (Q13546 1-375): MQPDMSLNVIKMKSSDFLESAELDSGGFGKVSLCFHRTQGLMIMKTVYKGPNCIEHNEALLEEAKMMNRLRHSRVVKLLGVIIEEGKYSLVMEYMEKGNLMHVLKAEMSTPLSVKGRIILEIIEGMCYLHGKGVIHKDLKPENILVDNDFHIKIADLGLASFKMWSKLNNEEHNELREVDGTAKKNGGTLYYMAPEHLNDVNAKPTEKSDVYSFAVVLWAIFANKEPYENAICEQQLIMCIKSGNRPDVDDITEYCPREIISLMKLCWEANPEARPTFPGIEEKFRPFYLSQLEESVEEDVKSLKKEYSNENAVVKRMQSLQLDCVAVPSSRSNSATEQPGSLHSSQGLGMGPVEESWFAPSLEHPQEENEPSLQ
Assay: Human RIPK1 enzyme inhibitory effect (ADP-Glo Kinase Assay)
Format: biochemical
Details: 10 μM test compound; well without enzyme = 100% inhibition; 10 µM
Procedure: Experimental Example 1: Human RIPK1 Enzyme Inhibitory Effect
Enzyme was prepared by transducing human RIPK1 (1-375) gene to Sf-9 insect cells, and purifying using GST affinity column, and enzyme activity evaluation was performed using the enzyme. The enzyme was used after preservation at −70° C. The RIPK1 enzyme inhibitory activity of the test compound was measured using ADP-Glo™ Kinase Assay (Promega) according the following experiment methods. The test compound diluted with assay buffer (25 mM HEPES (pH 7.5), 10 mM MgCl2, 0.01% Tween-20, 2 mM DTT) was added to 384 well plate by each 2 μL. Next, RIPK1 enzyme solution diluted with the assay buffer was added thereto by each 2 μL, and the mixture was incubated at room temperature for 20 min. After the incubation, 0.6 mM ATP solution was added thereto by each 2 μL to initiate an enzyme reaction. The mixture was incubated at room temperature for 120 min, and ADP-Glo solution prepared according to Promega protocol was added to the 384 well plate by each 3 μL, and the reaction was performed at room temperature for 40 min. Then, Kinase-Detection solution was added to the 384 well plate by each 6 μL, and the reaction was performed at room temperature for 40 min. After the reaction, the luminescence intensity was measured by plate reader Envision (PerkinElmer).

Row | human RIPK1 enzyme inhibitory effect at 10 μM (% inhibition) [%] | Structure (SMILES)
1 | 99 | CN1C(=O)C(N2CCc3c(nn(Cc4ccccc4)c3Cl)C2=O)CCc2ncccc21 (centres unmarked) [Example 65, 7-(2-benzyl-3-chloro-7-oxo-2,4,5,7-tetrahydro-6H-pyrazolo[3,4-c]pyridin-6-yl)-5-methyl-5,7,8,9-tetrahydro-6H-pyrido[3,2-b]azepin-6-one]
2 | 100 | CN1C(=O)C(N2CCc3c(nn(Cc4ccccc4)c3Cl)C2=O)CCc2ncccc21 (stereo not drawn) [Example 66, 7-(2-benzyl-3-chloro-7-oxo-2,4,5,7-tetrahydro-6H-pyrazolo[3,4-c]pyridin-6-yl)-5-methyl-5,7,8,9-tetrahydro-6H-pyrido[3,2-b]azepin-6-one (optical isomer)]
3 | 73 | CN1C(=O)C(N2CCc3c(nn(Cc4ccccc4)c3Cl)C2=O)CCc2ncccc21 (stereo not drawn) [Example 67, 7-(2-benzyl-3-chloro-7-oxo-2,4,5,7-tetrahydro-6H-pyrazolo[3,4-c]pyridin-6-yl)-5-methyl-5,7,8,9-tetrahydro-6H-pyrido[3,2-b]azepin-6-one (optical isomer)]

Same assay, conditions: read-out: human RIPK1 enzyme inhibitory effect at 10 μM (% inhibition)

Row | Structure (SMILES) | inhibition at 10 µM [%]
4 | CN1C(=O)[C@@H](N2CCc3c(nn(Cc4ccccc4)c3C(N)=O)C2=O)COc2ccccc21 [Example 50, 2-benzyl-6-((3S)-5-methyl-4-oxo-2,3,4,5-tetrahydro-1,5-benzoxazepin-3-yl)-7-oxo-4,5,6,7-tetrahydro-2H-pyrazolo[3,4-c]pyridine-3-carboxamide] | 99

Same assay, conditions: read-out: human RIPK1 enzyme inhibitory effect at 10 μM (% inhibition), 10 μM test compound; well without enzyme = 100% inhibition

Row | Structure (SMILES) | inhibition at 10 µM [%]
5 | CN1C(=O)[C@@H](N2CCc3cn(Cc4c(F)cccc4F)nc3C2=O)COc2cc(C#N)ccc21 [Example 45, (3S)-3-(2-(2,6-difluorobenzyl)-7-oxo-2,4,5,7-tetrahydro-6H-pyrazolo[3,4-c]pyridin-6-yl)-5-methyl-4-oxo-2,3,4,5-tetrahydro-1,5-benzoxazepine-8-carbonitrile] | 101
6 | CNC(=O)c1ccc2c(c1)OC[C@H](N1CCc3c(nn(Cc4c(F)cccc4F)c3Cl)C1=O)C(=O)N2C [Example 46, (3S)-3-(3-chloro-2-(2,6-difluorobenzyl)-7-oxo-2,4,5,7-tetrahydro-6H-pyrazolo[3,4-c]pyridin-6-yl)-N,5-dimethyl-4-oxo-2,3,4,5-tetrahydro-1,5-benzoxazepine-8-carboxamide] | 100
7 | CNC(=O)c1ccc2c(c1)OC[C@H](N1CCc3c(nn(Cc4ccccc4F)c3Cl)C1=O)C(=O)N2C [Example 47, (3S)-3-(3-chloro-2-(2-fluorobenzyl)-7-oxo-2,4,5,7-tetrahydro-6H-pyrazolo[3,4-c]pyridin-6-yl)-N,5-dimethyl-4-oxo-2,3,4,5-tetrahydro-1,5-benzoxazepine-8-carboxamide] | 101
8 | COc1ccc(Cn2c(Cc3ccccc3)nc3c2CCN([C@H]2COc4ccccc4N(C)C2=O)C3=O)cc1 [Example 54, (3S)-3-(2-benzyl-1-(4-methoxybenzyl)-4-oxo-1,4,6,7-tetrahydro-5H-imidazo[4,5-c]pyridin-5-yl)-5-methyl-2,3-dihydro-1,5-benzoxazepin-4(5H)-one] | 93
9 | CN1C(=O)[C@@H](N2CCc3c(nn(Cc4ccccc4)c3Cl)C2=O)COc2cc(Br)ccc21 [Example 58, (3S)-3-(2-benzyl-3-chloro-7-oxo-2,4,5,7-tetrahydro-6H-pyrazolo[3,4-c]pyridin-6-yl)-8-bromo-5-methyl-2,3-dihydro-1,5-benzoxazepin-4(5H)-one] | 101
10 | CN1C(=O)[C@@H](N2CCc3c(nn(Cc4ccccc4)c3Cl)C2=O)COc2cc(C3COC3)ccc21 [Example 59, (3S)-3-(2-benzyl-3-chloro-7-oxo-2,4,5,7-tetrahydro-6H-pyrazolo[3,4-c]pyridin-6-yl)-5-methyl-8-(oxetan-3-yl)-2,3-dihydro-1,5-benzoxazepin-4(5H)-one] | 97
11 | CN1C(=O)[C@@H](N2CCc3c(nn(Cc4ccccc4)c3Cl)C2=O)COc2cc(-c3nccn3C)ccc21 [Example 60, (3S)-3-(2-benzyl-3-chloro-7-oxo-2,4,5,7-tetrahydro-6H-pyrazolo[3,4-c]pyridin-6-yl)-5-methyl-8-(1-methyl-1H-imidazol-2-yl)-2,3-dihydro-1,5-benzoxazepin-4(5H)-one] | 100
12 | CN1C(=O)[C@@H](N2CCc3c(nn(Cc4ccccc4)c3Cl)C2=O)COc2cc(C(=O)NCC(C)(C)O)ccc21 [Example 62, (3S)-3-(2-benzyl-3-chloro-7-oxo-2,4,5,7-tetrahydro-6H-pyrazolo[3,4-c]pyridin-6-yl)-N-(2-hydroxy-2-methylpropyl)-5-methyl-4-oxo-2,3,4,5-tetrahydro-1,5-benzoxazepine-8-carboxamide] | 101
13 | CC1Cc2cn(Cc3ccccc3)nc2C(=O)N1[C@H]1COc2ccccc2N(C)C1=O (stereo partly drawn) [Example 68, (3S)-3-(2-benzyl-5-methyl-7-oxo-2,4,5,7-tetrahydro-6H-pyrazolo[3,4-c]pyridin-6-yl)-5-methyl-2,3-dihydro-1,5-benzoxazepin-4(5H)-one] | 100
14 | CN1C(=O)[C@@H](N2CCc3cn(Cc4ccccc4)nc3C2=O)CS(=O)(=O)c2ccccc21 [Example 69, (3R)-3-(2-benzyl-7-oxo-2,4,5,7-tetrahydro-6H-pyrazolo[3,4-c]pyridin-6-yl)-5-methyl-2,3-dihydro-1,5-benzthiazepin-4(5H)-one 1,1-dioxide] | 99

Now from value to molecule:

Row | inhibition at 10 µM [%] | Structure (SMILES)
15 | 98 | COc1c2c(nn1Cc1ccccc1)C(=O)N([C@H]1COc3ccccc3N(C)C1=O)CC2 [Example 48, (3S)-3-(2-benzyl-3-methoxy-7-oxo-2,4,5,7-tetrahydro-6H-pyrazolo[3,4-c]pyridin-6-yl)-5-methyl-2,3-dihydro-1,5-benzoxazepin-4(5H)-one]
16 | 87 | CN1C(=O)[C@@H](N2CCc3c(nn(Cc4ccccc4)c3O)C2=O)COc2ccccc21 [Example 49, (3S)-3-(2-benzyl-3-hydroxy-7-oxo-2,4,5,7-tetrahydro-6H-pyrazolo[3,4-c]pyridin-6-yl)-5-methyl-2,3-dihydro-1,5-benzoxazepin-4(5H)-one]
17 | 99 | CCOC(=O)c1c2c(nn1Cc1ccccc1)C(=O)N([C@H]1COc3ccccc3N(C)C1=O)CC2 [Example 51, ethyl 2-benzyl-6-((3S)-5-methyl-4-oxo-2,3,4,5-tetrahydro-1,5-benzoxazepin-3-yl)-7-oxo-4,5,6,7-tetrahydro-2H-pyrazolo[3,4-c]pyridine-3-carboxylate]
18 | 98 | CN1C(=O)[C@@H](N2CCc3c(nn(Cc4ccccc4)c3CO)C2=O)COc2ccccc21 [Example 52, (3S)-3-(2-benzyl-3-(hydroxymethyl)-7-oxo-2,4,5,7-tetrahydro-6H-pyrazolo[3,4-c]pyridin-6-yl)-5-methyl-2,3-dihydro-1,5-benzoxazepin-4(5H)-one]
19 | 67 | CN1C(=O)[C@@H](N2CCc3c(nn(Cc4ccccc4)c3C(=O)O)C2=O)COc2ccccc21 [Example 53, 2-benzyl-6-((3S)-5-methyl-4-oxo-2,3,4,5-tetrahydro-1,5-benzoxazepin-3-yl)-7-oxo-4,5,6,7-tetrahydro-2H-pyrazolo[3,4-c]pyridine-3-carboxylic acid]
20 | 96 | CN1C(=O)[C@@H](N2CCc3[nH]c(Cc4ccccc4)nc3C2=O)COc2ccccc21 [Example 55, (3S)-3-(2-benzyl-4-oxo-1,4,6,7-tetrahydro-5H-imidazo[4,5-c]pyridin-5-yl)-5-methyl-2,3-dihydro-1,5-benzoxazepin-4(5H)-one trifluoroacetate]
21 | 96 | CN1C(=O)[C@@H](N2CCc3c(nc(Cc4ccccc4)n3C)C2=O)COc2ccccc21 [Example 56, (3S)-3-(2-benzyl-1-methyl-4-oxo-1,4,6,7-tetrahydro-5H-imidazo[4,5-c]pyridin-5-yl)-5-methyl-2,3-dihydro-1,5-benzoxazepin-4(5H)-one]
22 | 100 | CN1C(=O)[C@@H](N2CCc3c(nn(Cc4ccccc4)c3Cl)C2=O)COc2cc(C(=O)O)ccc21 [Example 61, (3S)-3-(2-benzyl-3-chloro-7-oxo-2,4,5,7-tetrahydro-6H-pyrazolo[3,4-c]pyridin-6-yl)-5-methyl-4-oxo-2,3,4,5-tetrahydro-1,5-benzoxazepine-8-carboxylic acid]
23 | 101 | CN1C(=O)[C@@H](N2CCc3c(nn(Cc4ccccc4)c3Cl)C2=O)COc2cc(C(N)=O)ccc21 [Example 64, (3S)-3-(2-benzyl-3-chloro-7-oxo-2,4,5,7-tetrahydro-6H-pyrazolo[3,4-c]pyridin-6-yl)-5-methyl-4-oxo-2,3,4,5-tetrahydro-1,5-benzoxazepine-8-carboxamide]
